How the values were obtained:
Assay in all cases: relative viability (nuclei count vs DMSO), 5 days (fraction); higher = more cells survive
[1] = compound: O=c1[nH]cc(F)c(=O)[nH]1 [5-Fluorouracil] + CS(=O)(=O)CCNCc1ccc(-c2ccc3ncnc(Nc4ccc(OCc5cccc(F)c5)c(Cl)c4)c3c2)o1 [Lapatinib] (partner 2 µM)
Procedure, shortened: (§1)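 Relative viability divides the nuclei count in treated wells by that in vehicle wells. Lung cancer cell lines were seeded in 1536-well plates, dosed by pin tool the next day, and fixed and stained after 5 days in one step with final 0.05% Triton X-100, 1% formaldehyde and 1 ug/ml Hoechst. Dosing was a single drug or a fixed anchor-drug dose plus five library-drug doses (not always all listed) in √10 steps, and values are medians of duplicate plates imaged at 4×.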

[2] = compound: CN[C@@H]1C[C@H]2O[C@@](C)([C@@H]1OC)n1c3ccccc3c3c4c(c5c6ccccc6n2c5c31)C(=O)NC4 [Staurosporine] + CS(=O)(=O)N1CCN(Cc2cc3nc(-c4cccc5[nH]ncc45)nc(N4CCOCC4)c3s2)CC1 [Pictilisib] (partner 1 µM)
Procedure, shortened: as §1

[3] = compound: O=c1[nH]cc(F)c(=O)[nH]1 [5-Fluorouracil] + CCNC(=O)c1noc(-c2cc(C(C)C)c(O)cc2O)c1-c1ccc(CN2CCOCC2)cc1 [Luminespib] (partner 0.01 µM)
Procedure, shortened: as §1

Sulindac + Dasatinib = compound: CC1=C(CC(=O)O)c2cc(F)ccc2/C1=C\c1ccc([S+](C)[O-])cc1 [Sulindac] + Cc1nc(Nc2ncc(C(=O)Nc3c(C)cccc3Cl)s2)cc(N2CCN(CCO)CC2)n1 [Dasatinib] (partner 0.075 µM)
Procedure, shortened: as §1

| Cell Line | relative viability ([1]; first compound 0.02 µM) | relative viability ([1]; first compound 0.2 µM) | relative viability ([1]; first compound 0.6325 µM) | relative viability ([1]; first compound 2 µM) | relative viability ([2]; first compound 0.005 µM) | relative viability ([2]; first compound 0.05 µM) | relative viability ([2]; first compound 0.1581 µM) | relative viability ([2]; first compound 0.5 µM) | relative viability ([3]; first compound 0.02 µM) | relative viability ([3]; first compound 0.2 µM) | relative viability ([3]; first compound 0.6325 µM) | relative viability ([3]; first compound 2 µM) | relative viability (Sulindac + Dasatinib; first compound 0.08 µM) | relative viability (Sulindac + Dasatinib; first compound 0.253 µM) | relative viability (Sulindac + Dasatinib; first compound 0.8 µM) | relative viability (Sulindac + Dasatinib; first compound 2.53 µM) | relative viability (Sulindac + Dasatinib; first compound 8 µM) | relative viability ([2]; first compound 0.01581 µM) |
| --- | --- | --- | --- | --- | --- | --- | --- | --- | --- | --- | --- | --- | --- | --- | --- | --- | --- | --- |
| NCI-H460 | 0.964 | 0.446 | 0.106 | 0.0598 | 0.316 | 0.228 | 0.0535 | 0.0424 | 0.0365 | 0.0336 | 0.0342 | 0.0284 | 0.616 | 0.461 | 0.482 | 0.489 | 0.658 |  |
| SK-MES-1 | 0.471 | 0.494 | 0.373 | 0.357 | 0.328 | 0.173 | 0.182 | 0.19 | 1.07 | 0.606 | 0.349 | 0.255 | 0.336 | 0.367 | 0.366 | 0.352 | 0.331 | 0.265 |
| NCI-H1792 | 0.893 | 0.853 | 0.235 | 0.161 | 0.25 | 0.0905 | 0.106 |  | 0.616 | 0.439 | 0.262 | 0.182 | 0.881 | 0.867 |  | 0.812 | 0.914 | 0.0859 |
| NCI-H2085 | 0.654 | 0.957 | 0.923 | 0.704 | 0.369 | 0.282 | 0.351 | 0.226 | 0.418 | 0.456 | 0.445 | 0.349 | 0.209 | 0.219 | 0.27 | 0.238 | 0.213 | 0.261 |
| LC-2-ad | 1.05 | 0.975 | 0.255 | 0.264 | 0.591 | 0.143 | 0.0807 | 0.0527 | 1.09 | 0.666 | 0.407 | 0.337 | 0.584 | 0.718 | 0.337 | 0.418 | 0.839 | 0.159 |
| 201T | 1.05 | 0.964 | 0.479 | 0.376 | 0.595 | 0.551 | 0.463 | 0.42 | 1.03 | 0.809 | 0.352 | 0.301 | 0.662 | 0.585 | 0.526 | 0.559 | 0.587 | 0.451 |
| NCI-H2023 | 0.719 | 0.234 | 0.0995 | 0.113 | 0.134 | 0.11 | 0.0886 | 0.0609 | 0.844 | 0.154 | 0.106 | 0.0768 | 0.91 | 0.726 | 0.424 | 0.567 | 0.617 | 0.106 |
| NCI-H1395 | 0.724 | 1.12 | 1.01 | 0.825 | 0.535 | 0.475 | 0.366 | 0.394 | 0.638 | 0.675 | 0.743 | 0.658 | 0.379 | 0.406 | 0.613 | 0.368 | 0.485 | 0.315 |
| NCI-H23 | 1.11 | 1.09 | 0.545 | 0.268 | 0.319 |  | 0.162 | 0.113 | 0.201 | 0.205 | 0.196 | 0.212 | 0.856 |  | 0.801 | 0.755 | 0.78 | 0.114 |
| LU99A | 1.03 | 1.03 | 0.77 | 0.551 | 0.187 | 0.186 | 0.122 | 0.114 | 0.245 | 0.281 | 0.234 |  | 0.596 | 0.533 | 0.509 | 0.522 | 0.714 | 0.158 |
| NCI-H1437 |  | 0.231 | 0.142 | 0.142 | 0.449 | 0.249 | 0.108 | 0.0658 | 0.706 | 0.324 | 0.313 | 0.202 | 0.405 | 0.462 | 0.293 | 0.399 | 0.444 | 0.25 |
| EKVX |  | 0.184 | 0.15 | 0.147 | 0.403 | 0.184 | 0.163 | 0.121 | 0.647 |  | 0.166 | 0.152 | 0.414 | 0.524 |  | 0.479 | 0.476 | 0.218 |
| ABC-1 | 1.33 | 1.23 | 1.24 | 1.13 | 0.256 | 0.112 | 0.0906 | 0.0638 | 0.577 | 0.531 | 0.533 | 0.465 | 0.506 | 0.53 | 0.434 |  | 0.673 | 0.164 |
| NCI-H647 | 1.14 | 1.2 | 1.07 | 0.687 | 0.292 | 0.148 | 0.118 | 0.0831 | 0.166 | 0.157 | 0.243 | 0.136 | 0.257 | 0.201 | 0.126 | 0.194 | 0.247 | 0.125 |
| NCI-H1734 | 1.11 | 1.14 | 0.808 | 0.392 | 0.317 | 0.174 | 0.105 | 0.0965 | 0.173 | 0.193 | 0.198 | 0.189 | 0.514 | 0.428 |  | 0.445 | 0.5 | 0.175 |
